Assay results from ChEMBL document CHEMBL1772986, “Scaffold-hopping strategy: synthesis and biological evaluation of 5,6-fused bicyclic heteroaromatics to identify orally bioavailable anticancer agents” (J Med Chem, 2011).
Converted amounts (≈) assume the structure as drawn. The source made the active and inactive calls. The calls are words filed in the database; no cut-off is given here.

Legend:
KB = assay: Cytotoxicity against human KB cells after 72 hrs by methylene blue dye assay; type: functional, cell-based
MKN-45 = assay: Cytotoxicity against human MKN45 cells after 72 hrs by methylene blue dye assay; type: functional, cell-based; conditions: MKN-45, 72 h
[1] = Metabolic stability in human liver microsomes assessed as compound remaining at 1 uM after 30 mins; type: ADME, Microsome; conditions: read-out: Stability
[2] = Aqueous solubility in distilled water at 2 mg after 24 hrs; type: physicochemical
[3] = Solubility of the compound in phosphate buffer at 2 mg at pH 7.4 after 24 hrs; type: physicochemical
[4] = Inhibition of tubulin polymerization measured every 30 seconds for 30 mins
Rattus norvegicus [5] = assay: AUC in Sprague-Dawley rat at 5 mg/kg, iv; type: ADME, organism-based, Plasma; parameters: dose 5 mg/kg, route intravenous; conditions: in vivo
Rattus norvegicus [6] = assay: Volume of distribution at steady state in Sprague-Dawley rat at 5 mg/kg, iv; type: ADME, organism-based; parameters: dose 5 mg/kg, route intravenous; conditions: in vivo
Rattus norvegicus [7] = assay: Half life in Sprague-Dawley rat plasma at 5 mg/kg, iv; type: ADME, organism-based; parameters: dose 5 mg/kg, route intravenous; conditions: in vivo
[8] = Half life in Sprague-Dawley rat plasma at 20 mg/kg, po; type: ADME, organism-based; parameters: dose 20 mg/kg, route oral
[9] = Cmax in Sprague-Dawley rat at 20 mg/kg, po; type: ADME, organism-based; parameters: dose 20 mg/kg, route oral; conditions: in vivo
[10] = Tmax in Sprague-Dawley rat at 20 mg/kg, po; type: ADME, organism-based; parameters: dose 20 mg/kg, route oral; conditions: in vivo
[11] = AUC in Sprague-Dawley rat at 20 mg/kg, po; type: ADME, organism-based; parameters: dose 20 mg/kg, route oral; conditions: plasma
[12] = Oral bioavailability in Sprague-Dawley rat at 20 mg/kg; type: ADME, organism-based; conditions: in vivo

Row | Structure (SMILES) | remaining at 0.5 h, 1 µM [1] | solubility at 24 h [2] | solubility at 24 h [3] | IC50 (KB) | IC50 (MKN-45) | other results
1 | COc1ncc2c(C(=O)c3cc(OC)c(OC)c(OC)c3)c[nH]c2n1 | – | – | – | 284 nM | 80 nM | –
2 | COc1ccn2c(C(=O)c3cc(OC)c(OC)c(OC)c3)cnc2c1 | – | – | – | 770 nM | 730 nM | –
3 | COc1ccn2c(C(=O)c3cc(OC)c(OC)c(OC)c3)c(C)cc2c1 | – | – | – | > 1000 nM | 354 nM | –
4 | COc1cc(C(=O)c2c[nH]c3nc(C)ccc23)cc(OC)c1OC [listing 1 of 2 here] | – | – | – | – | – | inhibition [4]: Active
5 | COc1ccc2c(C(=O)c3cc(OC)c(OC)c(OC)c3)cnn2n1 | 99.6% | – | – | > 1000 nM | > 1000 nM | –
6 | COc1ccc2c(C(=O)c3cc(OC)c(OC)c(OC)c3)c[nH]c2c1 | 54.1% | 0.9 µg/mL (≈ 2.64 µM) | 0.61 µg/mL (≈ 1.79 µM) | 6 nM | 5 nM | AUC (Rattus norvegicus [5]): 2712 ng·h/mL; Vdss (Rattus norvegicus [6]): 1.6 L/kg; t1/2 (Rattus norvegicus [7]): 0.9 h; half-life [8]: 2.8 h; Cmax [9]: 179 ng/mL; Tmax [10]: 4 h; AUC [11]: 1310 ng·h/mL; bioavailability [12]: 9.7%
7 | COc1ccc2c(C(=O)c3cc(OC)c(OC)c(OC)c3)c(C)cn2c1 | 35.4% | – | – | 31 nM | 26 nM | inhibition [4]: Active
8 | COc1ccc2c(C(=O)c3cc(OC)c(OC)c(OC)c3)ccn2c1 | – | – | – | 284 nM | 80 nM | –
9 | COc1ccc2c(C(=O)c3cc(OC)c(OC)c(OC)c3)n[nH]c2c1 | – | – | – | 70 nM | 95 nM | –

More lines, main results first:

Row | remaining at 0.5 h, 1 µM [1] | solubility at 24 h [2] | solubility at 24 h [3] | Structure (SMILES) | IC50 (KB) | IC50 (MKN-45) | other results
10 | 96.4% | < 2 µg/mL | < 1 µg/mL | CCOc1ccc2c(C(=O)c3cc(OC)c(OC)c(OC)c3)c[nH]c2n1 | 12 nM | 14 nM | inhibition [4]: Active
11 | – | 14.3 µg/mL (≈ 43.8 µM) | 8.3 µg/mL (≈ 25.4 µM) | COc1cc(C(=O)c2c[nH]c3nc(C)ccc23)cc(OC)c1OC [listing 2 of 2 here] | – | – | AUC (Rattus norvegicus [5]): 2653 ng·h/mL; Vdss (Rattus norvegicus [6]): 0.7 L/kg; t1/2 (Rattus norvegicus [7]): 0.4 h; half-life [8]: 1.3 h; Cmax [9]: 3750 ng/mL; Tmax [10]: 0.5 h; AUC [11]: 4640 ng·h/mL; bioavailability [12]: 35%
12 | – | 91.3 µg/mL | 79.6 µg/mL | COc1cc(C(=O)c2c[nH]c3nc(C)ccc23)cc(OC)c1OC.Cl | – | – | –
13 | 88.3% | < 2 µg/mL | < 1 µg/mL | COc1ccc2c(C(=O)c3cc(OC)c(OC)c(OC)c3)c[nH]c2n1 | 20 nM | 16 nM | –
